Laboratory results reported in PubChem BioAssay (NCI).
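96-well plates; 48 h exposure; 5 concentrations. Endpoints by linear interpolation between flanking doses. Not reached: highest tested concentration assigned. GI50 marks 50% less growth. At the TGI there is no net growth.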

Assays:
Experiment in all cases: DTP human tumour cell line panel, 48 h
786-0 renal = system: 786-0 renal
DU-145 prostate = system: DU-145 prostate
HT29 colon = system: HT29 colon
MALME-3M melanoma = system: MALME-3M melanoma
NCI-H226 lung = system: NCI-H226 lung
NCI-H460 lung = system: NCI-H460 lung
OVCAR-4 ovarian = system: OVCAR-4 ovarian
RXF 393 renal = system: RXF 393 renal
TK-10 renal = system: TK-10 renal
U251 CNS = system: U251 CNS

Structure (SMILES)	GI50 (786-0 renal)	TGI (786-0 renal)	GI50 (DU-145 prostate)	TGI (DU-145 prostate)	GI50 (HT29 colon)	TGI (HT29 colon)	GI50 (MALME-3M melanoma)	TGI (MALME-3M melanoma)	GI50 (NCI-H226 lung)	TGI (NCI-H226 lung)	GI50 (NCI-H460 lung)	TGI (NCI-H460 lung)	GI50 (OVCAR-4 ovarian)	TGI (OVCAR-4 ovarian)	GI50 (RXF 393 renal)	TGI (RXF 393 renal)	GI50 (TK-10 renal)	TGI (TK-10 renal)	GI50 (U251 CNS)	TGI (U251 CNS)
CCCCCCc1cc2cc(-c3csc(/C=C/c4ccccc4)n3)c(=O)oc2cc1O	4.62 µM	17.1 µM	12.8 µM	44.7 µM	> 100 µM	> 100 µM	14.7 µM	34.6 µM	15.2 µM	33.4 µM	7.01 µM	21.7 µM	3.56 µM	13.7 µM	3.71 µM	15.1 µM	29 µM	69.5 µM	2.91 µM	10.5 µM
O=C(c1cccs1)c1nc2cc(Cl)ccc2[n+]([O-])c1C(F)(F)F	> 100 µM	> 100 µM	> 100 µM	> 100 µM	58.9 µM	> 100 µM	99 µM	> 100 µM	> 100 µM	> 100 µM	91.9 µM	> 100 µM	> 100 µM	> 100 µM	44.3 µM	> 100 µM	> 100 µM	> 100 µM	> 100 µM	> 100 µM
COc1ccc(C2CC(c3ccc4ccccc4c3)=NN2c2nc(O)c(C3=c4cc(OC)ccc4=NC3=O)s2)cc1 (centres undefined)	0.028 µM	0.0869 µM	0.0449 µM	14.1 µM	0.0458 µM	> 100 µM	0.0243 µM	0.0655 µM	0.0581 µM	0.248 µM	0.0226 µM	0.0473 µM	0.033 µM	0.128 µM	0.0266 µM	0.0831 µM	0.0905 µM	0.371 µM	0.0323 µM	0.0975 µM
Cc1cc(=O)oc2cc(OC(=O)Nc3ccccc3)ccc12	–	> 100 µM	–	> 100 µM	–	> 100 µM	–	> 100 µM	–	> 100 µM	–	> 100 µM	–	> 100 µM	–	> 100 µM	–	> 100 µM	–	> 100 µM
O=Cc1ccc(-c2ccc(-c3ccc(C=O)o3)[se]2)o1	53.2 µM	> 100 µM	> 100 µM	> 100 µM	> 100 µM	> 100 µM	> 100 µM	> 100 µM	41.7 µM	> 100 µM	> 100 µM	> 100 µM	> 100 µM	> 100 µM	55.8 µM	> 100 µM	7.73 µM	> 100 µM	44.8 µM	> 100 µM
Cn1c(=O)c2[nH]c(CCCc3ccc([N+](=O)[O-])cc3)nc2n(C)c1=O	–	> 100 µM	–	> 100 µM	–	> 100 µM	–	> 100 µM	–	> 100 µM	–	> 100 µM	–	> 100 µM	–	> 100 µM	–	> 100 µM	–	> 100 µM
COc1cc2c3c(n(CCCN4CCCNCC4)c(=O)c2cc1OC)-c1cc2c(cc1C3=O)OCO2	0.268 µM	1.14 µM	0.166 µM	2.02 µM	1.15 µM	17.6 µM	2.47 µM	11.9 µM	0.303 µM	3.03 µM	0.0545 µM	6.47 µM	2.91 µM	11.1 µM	2.53 µM	11.5 µM	1.35 µM	7.54 µM	0.181 µM	2.91 µM
CS(=N)(=O)CCC(N)P(=O)(O)O (centres undefined)	–	> 100 µM	–	> 100 µM	–	> 100 µM	–	> 100 µM	–	> 100 µM	–	> 100 µM	–	> 100 µM	–	> 100 µM	–	> 100 µM	–	> 100 µM
NC(=N\N=C/c1ccc(Cl)cc1Cl)/C(N)=N\N=C/c1ccc(Cl)cc1Cl	1.32 µM	16.7 µM	> 100 µM	> 100 µM	> 100 µM	> 100 µM	41.3 µM	> 100 µM	9.92 µM	98 µM	0.795 µM	> 100 µM	0.34 µM	1.65 µM	12.8 µM	63.9 µM	1.25 µM	16.7 µM	1.02 µM	19 µM
O=C(O)c1ccc(Oc2nc3ccccc3s2)cc1	–	> 100 µM	–	> 100 µM	–	> 100 µM	–	> 100 µM	–	> 100 µM	–	> 100 µM	–	> 100 µM	–	> 100 µM	–	> 100 µM	–	> 100 µM
O=C(NS(=O)(=O)c1ccc(NC[C@H]2COCCO2)c([N+](=O)[O-])c1)c1ccc(N2CCN(CC3=C(c4ccc(Cl)cc4)CC4(CCC4)CC3)CC2)cc1Oc1cnc2[nH]ccc2c1	2.47 µM	5.69 µM	3.57 µM	70.6 µM	2.58 µM	8.14 µM	1.69 µM	3.2 µM	1.88 µM	3.93 µM	2.15 µM	6.12 µM	2.47 µM	9.81 µM	1.32 µM	2.76 µM	2.29 µM	7.27 µM	2.19 µM	5.38 µM
CC(C)OCc1cc(CN2CCN(c3cccc(Cl)c3)CC2)c(O)c2ncccc12	0.785 µM	9.56 µM	0.876 µM	14.7 µM	6.76 µM	21.8 µM	1.03 µM	7.33 µM	1.39 µM	6.56 µM	0.41 µM	11.2 µM	–	–	2.87 µM	20.2 µM	0.837 µM	21 µM	0.423 µM	11.9 µM
N#Cc1c2ccccc2c2nnc3ccc(C(F)(F)F)cc3n12	> 100 µM	> 100 µM	28 µM	> 100 µM	61.8 µM	> 100 µM	47.9 µM	> 100 µM	–	–	28.7 µM	> 100 µM	97.9 µM	> 100 µM	23.4 µM	80.3 µM	23 µM	> 100 µM	28.9 µM	> 100 µM
NC(=O)CCc1ccccc1Oc1nccc(-c2c(-c3ccc(F)cc3)ncn2C2CCNCC2)n1	> 25 µM	> 25 µM	> 25 µM	> 25 µM	> 25 µM	> 25 µM	> 25 µM	> 25 µM	–	–	> 25 µM	> 25 µM	> 25 µM	> 25 µM	> 25 µM	> 25 µM	> 25 µM	> 25 µM	> 25 µM	> 25 µM
